Here are results for 1 substance from PMC8125234, “Cardiolipin Stabilizes and Increases Catalytic Efficiency of Carnitine Palmitoyltransferase II and Its Variants S113L, P50H, and Y479F” (International Journal of Molecular Sciences, 2021).

For assay [1], the target named is T1, CPT II WT (Homo sapiens, UniProt P23786).
T1 construct: made in house; host or cells: Escherichia coli BL21Gold DE
T1 sequence (P23786 26-658): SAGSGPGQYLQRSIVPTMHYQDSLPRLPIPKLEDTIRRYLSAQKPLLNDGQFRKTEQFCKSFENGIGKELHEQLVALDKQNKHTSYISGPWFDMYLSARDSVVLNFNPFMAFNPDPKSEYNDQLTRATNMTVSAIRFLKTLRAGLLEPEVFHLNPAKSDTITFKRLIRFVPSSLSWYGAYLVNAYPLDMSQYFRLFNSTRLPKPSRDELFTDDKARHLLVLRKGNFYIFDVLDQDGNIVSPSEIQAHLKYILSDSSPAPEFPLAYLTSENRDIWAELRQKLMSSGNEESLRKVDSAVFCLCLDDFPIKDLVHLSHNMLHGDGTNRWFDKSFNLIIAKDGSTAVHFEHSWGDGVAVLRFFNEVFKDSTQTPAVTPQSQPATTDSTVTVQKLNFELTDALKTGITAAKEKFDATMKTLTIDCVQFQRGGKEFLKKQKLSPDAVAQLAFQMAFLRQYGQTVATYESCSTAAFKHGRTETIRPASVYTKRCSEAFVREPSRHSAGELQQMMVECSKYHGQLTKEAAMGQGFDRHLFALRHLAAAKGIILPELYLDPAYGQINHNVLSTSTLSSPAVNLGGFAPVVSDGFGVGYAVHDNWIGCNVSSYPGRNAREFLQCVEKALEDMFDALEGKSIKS
Nature of the assay: Influence of CL on the enzyme activity. The format is biochemical. As to conditions: for Maximal Enzymatic Activity: w/o CL = 100. The procedure: (§1) Then, the effect of CL, as a potential stabilizing agent, was investigated in the activity assay. Therefore, 0.1 mg/mL recombinant enzyme was incubated with various concentrations of CL (0.125, 0.25 or 0.5 mM) or buffer at 30 and 42 °C, respectively.
(§2) Before activity measurements, the storage buffer of the enzymes was replaced with assay buffer (50 mM KH2PO4, 120 mM KCl, 1 mM EDTA-Na4) using vivaspin turbo 4 tubes (Satorius Stedim biotech GmbH, Göttingen, Germany) at 4 °C. The pH of assay buffer was adjusted with KOH to 7.4. The storage buffer was diluted at least 1:500 in assay buffer. In addition, before each experimental set up, the protein samples were centrifuged at 16,000× g for 5 min at 4 °C to remove any micro-aggregates. After that, the protein concentration was determined using bicinchoninic acid (BCA) protein assay kit (Thermo Fisher Scientific GmbH, Berlin, Germany). The enzyme activity of recombinant CPT II was performed following Rufer et al. with modifications described elsewhere. […] After pre-conditioning the mixture to 25 °C for 2 min, the reaction was started by adding 15 nM of recombinant enzyme. The reverse reaction of CPT II was detected with the enzyme activity assay. CPT II catalyzed the transfer of fatty acid residue from Pal-CoA to L-carnitine with release of CoA and Pal-carnitine. The released CoA was then detected by the reaction of the free thiol group with DTNB, forming 5-mercapto-(2-nitrobenzoic acid). This compound has a molar extinction coefficient of 13,600 M^−1 cm^−1 at a wavelength of 410 nm, and its formation was followed spectroscopically. […] The slope of the progress curve was used to determine the reaction velocity.
(§3) The purified enzymes were incubated at different temperatures (30, 37, 40 and 42 °C) using a protein concentration of 1 mg/mL during the incubation periods to investigated the half-lives of WT and variants. 0.1 mg/mL enzyme was incubated with or without CL (0.125, 0.25 and 0.5 mM) in the assay buffer. The enzyme activities were determined by adding 15 nM of pre-incubated enzyme according to Section 4.3 after various incubation times up to 60 min at an assay temperature of 25 °C. Experiments were done at least three times independently as double determination.

In assay [2] the target is T2, CPT II variant Y479F (Homo sapiens, UniProt P23786, Y479F).
T2 construct: made in house; host or cells: Escherichia coli BL21Gold DE
T2 sequence (P23786 26-658 Y479F): T1 sequence (P23786 26-658) with Y454F
Briefly: Influence of CL on the enzyme activity. In kind it is biochemical. As to the method: as §1, §2, §3

Numbering of substitutions follows the chain as printed.

As for Cardiolipin [CL], the “Increase of the enzymatic activity by CL” value in assay [1] was found to be 1.5 fold; in assay [2] it was 1.8 fold. Further, the “Maximal Enzymatic Activity” value is listed as 152.3 ± 5.5% in assay [1] (0.25 mM CL); 135.9 ± 4.7% in assay [1] (0.5 mM CL); 151.7 ± 7.6% in assay [2] (0.5 mM CL, w/o CL = 100). The “Enzymatic activity in the presence of CL” value in assay [1] (0.25 and 0.5 mM CL, before incubation periods) was “up to 150%”; in assay [2] (before incubation periods) it was 175%.
